Measured values: patent EP0773287A1, “Immortalised embryonic hyppocampal cells and their use” (BAYER AG, priority 1995, dated 1997)

Key:
Type in all cases: cell-based, murine
[1] = test system: v-myc-expressing lines and clones; assay: Induction of differentiation of immortalised cell lines and clones; settings: 1mM
Procedure: For experiments in the presence of growth factors or other differentiation inducing agents, the primary cell cultures or the immortalised cell lines were cultured in the presence of one or a combination of the following: β-FGF, 1ng/ml, (Collaborative Research), EGF; 5 ng/ml or 10 ng/ml, (Collaborative Research), NGF (10 ng/ml, Collaborative Reasearch), dibutyryl cyclic adenosine monophosphate (dbcAMP, 1mM, Sigma, Heidelberg), retinoic acid (5 µM; Sigma), IL-7 (50 U/ml), TGFα (5ng/ml).
To induce differentiation in vitro several combinations of the following factors were used: retinoic acid (RA, 10 µM), NGF, β-FGF, EGF, IL-7, TGFα, dbcAMP (1mM). In addition the effect of co-culture with cortical glial cells originating from postnatal day 0 to 1 and granule neurons originating from postnatal day 6 mice was investigated.

HNMMCV13.1.E = assay: Whole-cell patch-clamp recording of ligand-activated currents; settings: 13.1.E; membrane potential clamped to -70mV
Procedure: (§1) Electrophysiological setup: Membrane currents were measured with the patchclamp technique in the whole-cell recording configuration (Hamill et al. 1981, Pfluegers Arch. 391:85-100). Current signals were amplified with conventional electronics (EPC-9 amplifier, HEKA Elektronik GmbH, Lambrecht, Germany), filtered at 10kHz, and sampled at 5 kHz by an interface connected to an IBM AT-compatible computer system, which also served as a stimulus generator.
(§2) Solutions and electrodes: The standard bathing solution contained (in mM): Nacl 150, KCL 5, MgCl2 1.8, HEPES 5, and glucose 10. In some experiments an equimolar amount of NaCl was replaced by 5mM BaCl2. Recording pipettes had resistances about 5MΩ (Hilgenberg, Malsfeld, Germany). The pipettes contained (in mM): KCL 140, CaCl2 0.5, EGTA 5, MgCl2 2, and HEPES 10. The pH was adjusted to 7.4. In some experiments the pipette solution was designed to minimize the contribution of voltage-activated currents. In this case, investigating the ligand-activated currents, the pipette solution contained (in mM): CsCl 140, EGTA 10, and HEPES 10.
(§3) Ligands were dissolved in the extracellular saline solution and applied via an U-tube application system. To record ligand-induced currents, the membrane potential was clamped to -70mV. For measurements of voltage-activated currents, cells were held at -70mV and every second the membrane was stepped through a 50 msec. de- or hyperpolarising test pulse to a potential between -170 and +20 mV.

HC e/n XVB cells = assay: as above; settings: membrane potential clamped to -70mV
Procedure: as §1, §2, §3

[2] = test system: metabotropic glutamate receptor(s) (mGluR) expressed by HNMMCV14.1A cells; assay: Phosphoinositide hydrolysis: accumulation of 3H-inositol phosphates; settings: HNMMCV14.1A cells; agonist 1 h, LiCl 10 mM; read-out: EC50 inositolphosphate accumulation
Procedure: Phosphoinositide hydrolysis was determined by measuring the accumulation of ^3H-inositol phosphates. The cells were plated in 48-well plates (Costar) at a density of 10000 cells per well and incubated for 4-5 days at 37°C, 7% CO2. Then the cells were labeled by incubation with 4 µCi of myo-2-^3H-inositol per ml medium (specific activity: […]: Amersham). After 24 h LiCl (10 mM final concentration) was added to the cells for 1 h. Agonists were then added at the concentrations indicated. The incubation was stopped after 1 h by replacing the medium with 200 µl ice-cold methanol. 400 µl of destilled water was added and the sample was directly applied to AG-1X8 ion exchange columns (AG-1X8 resin: BioRad). Free inositol and glycerophosphoryl-inositol were washed away with 16 ml destilled water followed by 10 ml 5 mM disodium-tetraborate, 60 mM sodium formate. Total ^3H-inositol phosphates (IP1, IP2, IP3) were eluted with 7 ml of 100 mM formic acid, 1 M ammonium formate. Radioactivity of the eluted ^3H-inositol phosphates was determined by liquid scintillation counting after addition of 13 ml liquid scintillation cocktail (Ultima Gold: Canberra Packard). Measurements were performed in triplicates for each experimental point. Untreated controls were set as 100% and the other values calculated in relation to this.
The columns were prepared as follows: 1 ml pipet tips were filled with one glass bead (Roth) per tip before adding 500 µl AG-1X8 resin. The resin was compressed with air and 270 µl seasand was applied. Until use they were stored at 4°C.

Structure (SMILES) | expression of MAP-2 ([1]; cell line HNMMCV11.2.) | differentiation of the cells (morphology, markers vimentin and nestin) ([1]; v-myc-expressing lines and clones) | ligand-activated currents (electrophysiological recordings) (HNMMCV13.1.E) | ligand-activated currents (electrophysiological recordings) (HC e/n XVB cells; XV. B/ - EGF) | ligand-activated currents (electrophysiological recordings) (HC e/n XVB cells; XV. B) | EC50 [2] [µM]
CCCC(=O)Nc1ncnc2c1ncn2[C@@H]1O[C@@H]2COP(=O)(O)O[C@H]2[C@H]1OC(=O)CCC [dbcAMP, dibutyryl cyclic adenosine monophosphate] | induction of the expression of MAP-2 | partial differentiation |  |  |  | 
N[C@@H](CCC(=O)O)C(=O)O [Glutamate, L-glutamate] |  |  | + (+: 10-30% positive cells) | ++ (++: 30-70% positive cells) | - | 50
